Test results reported in paper PMC8556085, “Antimicrobial and Antioxidant Secondary Metabolites from Trifolium baccarinii Chiov. (Fabaceae) and Their Mechanisms of Antibacterial Action” (BioMed Research International, 2021).
≈ marks a conversion by molar mass, not a printed value. Marks after values point to notes of the source that are not given here.

Legend:
[1] = parameters: method as in doi:10.22159/ijpps.2017v9i2.13964; conditions: cited from earlier work
[2] = test system: yeasts (C. albicans, C. tropicalis, and C. neoformans); parameters: method as in PMID 26887239; conditions: cited from earlier work
[3] = DPPH free radical scavenging assay; conditions: mean ± SD
Method: The free radical scavenging activity of extracts and compounds was evaluated according to the described method. The EC50 (μg/mL), which is the amount of sample necessary to inhibit by 50% the absorbance of free radical DPPH, was calculated. Vitamin C was used as a standard control. All the analyses were carried out in triplicate and repeated three times.

[4] = test system: methicillin-resistant Staphylococcus aureus 03 (MRSA03); test: Broth microdilution MIC/MMC; assay type: cell-based
Method: (§1) The antimicrobial activity was performed against five bacterial and two fungal species. The selected microorganisms were the Gram-positive (Staphylococcus aureus ATCC25923, methicillin-resistant Staphylococcus aureus 03 (MRSA03), and methicillin-resistant Staphylococcus aureus 04 (MRSA04)) and Gram-negative (Pseudomonas aeruginosa ATCC27853 and Escherichia coli S2(1)) bacteria and yeast strains of Candida albicans ATCC10231 and Cryptococcus neoformans H99. These microorganisms were taken from our laboratory collection. The fungal and bacterial strains were conserved on Sabouraud Dextrose Agar (SDA, Conda, Madrid, Spain) and nutrient agar (NA, Conda) slants, respectively.
(§2) The antimicrobial activity was investigated by determining the minimum inhibitory concentrations (MICs), minimum bactericidal concentrations (MBC), and minimum fungicidal concentrations (MFCs). MICs of extracts/compounds were monitored using the broth microdilution method. Dimethyl sulfoxide (DMSO, Fisher Chemicals) was used to dissolve the test sample to produce a stock solution that was twofold serially diluted in Mueller-Hinton broth (MHB) for bacteria and Sabouraud Dextrose Broth (SDB) for fungi to obtain a concentration range of 4096 to 0.25 μg/mL. One hundred microliters of each concentration was introduced into a well (96-well microplate) containing 90 μL of SDB or MHB and 10 μL of inoculum (at 1 × 10^6 CFU/mL for bacteria and 1 × 10^5 spores/mL for yeasts) which were added to obtain a final concentration range of 2048 to 0.125 μg/mL. Plates were covered and incubated on the shaker at 37°C, 30°C, and 30°C during 24 h, 48 h, and 72 h for bacteria, Candida albicans, and Cryptococcus neoformans, respectively. The MICs were visually assessed after the incubation period and were considered the lowest sample concentration that inhibits the growth or the visual growth of the organism.
(§3) The positive controls were oxacillin (Sigma-Aldrich, Steinheim, Germany) for bacteria and nystatin (Sigma-Aldrich, Steinheim, Germany) for yeasts, and the negative control was broth with 20 μL of DMSO. The assay was carried out in triplicate.

[5] = test system: Cryptococcus neoformans H99; test: Broth microdilution MIC/MMC; assay type: cell-based
Method: as §1, §2, §3

[6] = test system: Pseudomonas aeruginosa ATCC27853; test: Broth microdilution MIC/MMC; assay type: cell-based
Method: as §1, §2, §3

[7] = test system: Candida albicans ATCC10231; test: Broth microdilution MIC/MMC; assay type: cell-based
Method: as §1, §2, §3

[8] = test system: methicillin-resistant Staphylococcus aureus 04 (MRSA04); test: Broth microdilution MIC/MMC; assay type: cell-based
Method: as §1, §2, §3

[9] = test system: Staphylococcus aureus ATCC25923; test: Broth microdilution MIC/MMC; assay type: cell-based
Method: as §1, §2, §3

Escherichia coli S2(1) = test: Broth microdilution MIC/MMC; assay type: cell-based
Method: as §1, §2, §3

[10] = parameters: method as in doi:10.22159/ijpps.2017v9i2.13964; conditions: cited from earlier work; remark: listed apart in the source
[11] = parameters: method as in doi:10.22159/ijpps.2017v9i2.13964; conditions: cited from earlier work; remark: listed apart in the source
[12] = parameters: method as in doi:10.22159/ijpps.2017v9i2.13964; conditions: cited from earlier work; remark: listed apart in the source
[13] = test system: Gram-positive (S. aureus, S. epidermidis) and Gram-negative (P. aeruginosa) bacteria; parameters: method as in PMID 26887239; conditions: cited from earlier work
[14] = Gallic acid equivalent antioxidant capacity (GEAC) assay; conditions: ABTS radical, 420 nm, 240 s; mean ± SD
Method: The GEAC test was performed as described previously with some slight modifications. The laccase was purified from Sclerotinia sclerotiorum according to the described protocol. 20 μL of laccase (1 mM stock solution), 20 μL of test sample, 10 μL of ABTS (2,2′-azino-bis(3-ethylbenzothiazoline-6-sulfonic acid) (74 mM stock solution), and 950 μL of acetate buffer (pH = 5.0, 100 mM) were added in a quartz cuvette. The concentrations of the samples in the assay mixture were 800, 400, 200, 100, and 10 μg/mL for the extracts and 200, 100, 50, 25, and 12.5 μg/mL for the isolated compounds. The content of the generated ABTS^●+ radical was measured at 420 nm after 240 s reaction time and was converted to gallic acid equivalents by the use of a calibration curve (Pearson's correlation coefficient: r = 0.998) constructed with 0, 4, 10, 14, 28, 56, and 84 μM gallic acid standards rather than Trolox. Experiments were done in triplicate and repeated three times with similar results.

[15] = test system: tested bacteria and yeasts; test: Broth microdilution MIC/MMC, summary over all strains; assay type: cell-based
Method: as §1, §2, §3

[16] = parameters: method as in doi:10.22159/ijpps.2017v9i2.13964; conditions: cited from earlier work; remark: listed apart in the source
[17] = Pseudomonas aeruginosa ATCC27853
[18] = Staphylococcus aureus ATCC25923

SMILES: COc1ccc(-c2coc3cc(O)ccc3c2=O)cc1 [compound 2, formononetin]
- IC50 against nitric oxide [1]: 5.0 µg/mL (≈ 18.6 µM)
- minimum inhibitory concentration [2]: 25 µg/mL (≈ 93.2 µM)
- DPPH free radical scavenging activity (EC50) [3]: 6.39 ± 0.62^e μg/mL
- MMC/MIC ([4]; MRSA03): 2
- MBC ([4]; Staphylococcus aureus, MRSA03): 256 µg/mL (≈ 954 µM)
- MIC ([4]; Staphylococcus aureus, MRSA03, 24 h, 37°C, read-out: MIC): 128 µg/mL (≈ 477 µM)
- MFC ([5]; Cryptococcus neoformans H99): 64 µg/mL (≈ 239 µM)
- MMC/MIC ([5]; Cryptococcus neoformans H99): 1
- MIC ([5]; Cryptococcus neoformans H99, 72 h, 30°C, read-out: MIC): 64 µg/mL (≈ 239 µM)
- MBC [6, 17]: 128 µg/mL (≈ 477 µM)
- MMC/MIC [6, 17]: 1
- MIC ([6]; Pseudomonas aeruginosa ATCC27853, 24 h, 37°C, read-out: MIC): 128 µg/mL (≈ 477 µM)
- MFC ([7]; Candida albicans ATCC10231): 128 µg/mL (≈ 477 µM)
- MMC/MIC ([7]; Candida albicans ATCC10231): 2
- MIC ([7]; Candida albicans ATCC10231, 48 h, 30°C, read-out: MIC): 64 µg/mL (≈ 239 µM)
- MMC/MIC ([8]; MRSA04): 2
- MBC ([8]; Staphylococcus aureus, MRSA04): 256 µg/mL (≈ 954 µM)
- MIC ([8]; Staphylococcus aureus, MRSA04, 24 h, 37°C, read-out: MIC): 128 µg/mL (≈ 477 µM)
- MBC [9, 18]: 128 µg/mL (≈ 477 µM)
- MMC/MIC [9, 18]: 2
- MIC ([9]; Staphylococcus aureus ATCC25923, 24 h, 37°C, read-out: MIC): 64 µg/mL (≈ 239 µM)
- MBC (Escherichia coli S2(1)): 128 µg/mL (≈ 477 µM)
- MMC/MIC (Escherichia coli S2(1)): 2
- MIC (Escherichia coli S2(1); 24 h, 37°C, read-out: MIC): 64 µg/mL (≈ 239 µM)
- IC50 against DPPH [10]: 4.65 µg/mL (≈ 17.3 µM)
- IC50 against hydroxyl radical [11]: 9.48 µg/mL (≈ 35.3 µM)
- IC50 against superoxide radical [12]: 4.27 µg/mL (≈ 15.9 µM)
- minimum inhibitory concentration [13]: 200 µg/mL (≈ 746 µM)
- Gallic acid equivalent antioxidant capacity (GEAC) [14]: 77.91 ± 0.59^e μg/mL
- antimicrobial activity class of pure compounds by cutoff points ([15]; against specific microorganism, cutoff points of ref 33): moderate/low
- MIC ([15]; read-out: MIC (range over the tested microorganisms)): 64 to 128 µg/mL (≈ 239 to 477 µM)
- IC50 against hydrogen peroxide [16]: 4.75 µg/mL (≈ 17.7 µM)
